PubChem BioAssay AID248 (DTP/NCI, 2004)
Where “and” joins values, the source holds several entries; their conditions need not be identical. Equal entries are not always repeated. Inconclusive results and toxic doses are left out. Rule as the data show it: active = T/C of 150% or more; inactive = T/C below 125%.

System: L1210 leukemia ip in BDF1 mice, survival T/C
Test: NCI In Vivo Anticancer Drug Screen. Data for tumor model L1210 Leukemia (intraperitoneal) in B6D2F1 (BDF1) mice
Settings: endpoint: mean survival time, higher = longer survival
In short: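 Each compound was tested against a transplantable tumor grown in mice. The endpoint was survival, with treated animals benchmarked against vehicle controls as a simple ratio.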

[1] = dose: 100.0 mg/kg/injection, schedule: Q01DX001 (ip), vehicle: carboxymethylcellulose (CMC)
[2] = dose: 200.0 mg/kg/injection, schedule: Q01DX001 (ip), vehicle: carboxymethylcellulose (CMC)
[3] = dose: 400.0 mg/kg/injection, schedule: Q01DX001 (ip), vehicle: carboxymethylcellulose (CMC)
[4] = dose: 100.0 mg/kg/injection, schedule: Q01DX009 (ip), vehicle: Klucel (hydroxypropylcellulose) (HPC)
[5] = dose: 100.0 mg/kg/injection, schedule: Q04DX002 (ip), vehicle: saline
[6] = dose: 200.0 mg/kg/injection, schedule: Q01DX009 (ip), vehicle: Klucel (hydroxypropylcellulose) (HPC)
[7] = dose: 100.0 mg/kg/injection, schedule: Q04DX003 (ip), vehicle: Klucel (hydroxypropylcellulose) (HPC)
[8] = dose: 200.0 mg/kg/injection, schedule: Q04DX003 (ip), vehicle: Klucel (hydroxypropylcellulose) (HPC)
[9] = dose: 400.0 mg/kg/injection, schedule: Q01DX009 (ip), vehicle: Klucel (hydroxypropylcellulose) (HPC)
[10] = dose: 400.0 mg/kg/injection, schedule: Q04DX003 (ip), vehicle: Klucel (hydroxypropylcellulose) (HPC)
[11] = dose: 25.0 mg/kg/injection, schedule: Q04DX003 (ip), vehicle: Klucel (hydroxypropylcellulose) (HPC)
[12] = dose: 50.0 mg/kg/injection, schedule: Q04DX003 (ip), vehicle: Klucel (hydroxypropylcellulose) (HPC)
[13] = dose: 50.0 mg/kg/injection, schedule: Q01DX009 (ip), vehicle: saline
[14] = dose: 100.0 mg/kg/injection, schedule: Q01DX009 (ip), vehicle: saline

Measured: T/C

NC(CSSCC(N)=NC1CCCCC1)=NC1CCCCC1
inactive: dose: 3.0 mg/kg/injection, schedule: Q01DX009 (ip), vehicle: saline 96 % of control and 103 % of control | dose: 6.0 mg/kg/injection, schedule: Q01DX009 (ip), vehicle: saline 106 % of control and 90 % of control | dose: 6.25 mg/kg/injection, schedule: Q04DX002 (ip), vehicle: saline with Tween-80 124 % of control | dose: 12.0 mg/kg/injection, schedule: Q01DX009 (ip), vehicle: saline 103 % of control and 104 % of control | dose: 12.5 mg/kg/injection, schedule: Q01DX001 (ip), vehicle: saline with Tween-80 94 % of control | dose: 12.5 mg/kg/injection, schedule: Q01DX009 (ip), vehicle: carboxymethylcellulose (CMC) 100 % of control and 105 % of control | dose: 12.5 mg/kg/injection, schedule: Q04DX002 (ip), vehicle: saline with Tween-80 109 % of control | dose: 25.0 mg/kg/injection, schedule: Q01DX001 (ip), vehicle: saline with Tween-80 100 % of control | dose: 25.0 mg/kg/injection, schedule: Q01DX009 (ip), vehicle: carboxymethylcellulose (CMC) 103 % of control | dose: 25.0 mg/kg/injection, schedule: Q04DX002 (ip), vehicle: carboxymethylcellulose (CMC) 96 % of control and 91 % of control | dose: 25.0 mg/kg/injection, schedule: Q04DX002 (ip), vehicle: saline with Tween-80 102 % of control | dose: 50.0 mg/kg/injection, schedule: Q04DX002 (ip), vehicle: carboxymethylcellulose (CMC) 95 % of control | dose: 100.0 mg/kg/injection, schedule: Q04DX003 (ip), vehicle: carboxymethylcellulose (CMC) 104 % of control | dose: 200.0 mg/kg/injection, schedule: Q04DX003 (ip), vehicle: carboxymethylcellulose (CMC) 96 % of control

CCOP(=S)(N1CC1)N1CC1
inactive: [1] 95 % of control | [2] 95 % of control | [3] 94 % of control

[Cl][Ni][Cl].[NH-]CCN1CC1.[NH-]CCN1CC1
inactive: dose: 1.75 mg/kg/injection, schedule: Q01DX009 (ip), vehicle: saline 101 % of control | dose: 3.5 mg/kg/injection, schedule: Q01DX009 (ip), vehicle: saline 97 % of control | dose: 7.0 mg/kg/injection, schedule: Q01DX009 (ip), vehicle: saline 103 % of control | dose: 14.0 mg/kg/injection, schedule: Q01DX009 (ip), vehicle: saline 98 % of control

CCN=C(NC(=S)Nc1ccc(Cl)cc1)SCC
inactive: dose: 100.0 mg/kg/injection, schedule: Q04DX002 (ip), vehicle: saline with Tween-80 98 % of control | dose: 200.0 mg/kg/injection, schedule: Q04DX002 (ip), vehicle: saline with Tween-80 98 % of control | dose: 400.0 mg/kg/injection, schedule: Q04DX002 (ip), vehicle: saline with Tween-80 95 % of control

Nc1[nH][nH]c(=O)c1N=O
inactive: dose: 50.0 mg/kg/injection, schedule: Q01DX009 (ip), vehicle: Klucel (hydroxypropylcellulose) (HPC) 95 % of control | [4] 111 % of control | [5] 103 % of control | [6] 88 % of control | dose: 200.0 mg/kg/injection, schedule: Q04DX002 (ip), vehicle: saline 111 % of control | dose: 400.0 mg/kg/injection, schedule: Q04DX002 (ip), vehicle: saline 92 % of control

Nc1c(Cl)cc(Cl)c2ccc([N+](=O)[O-])cc12
inactive: [4] 93 % of control | [7] 103 % of control | [6] 107 % of control | [8] 93 % of control | [9] 95 % of control | [10] 93 % of control

CC1(CCCc2ccc([N+](=O)[O-])cc2)N=C(N)N=C(N)N1c1ccccc1 (stereo not drawn)
inactive: [11] 103 % of control | [12] 100 % of control | [7] 121 % of control

[Br][Hg][Br].c1ccc(N=P(c2ccccc2)(c2ccccc2)c2ccccc2)cc1
inactive: dose: 9.38 mg/kg/injection, schedule: Q01DX001 (ip), vehicle: other 95 % of control | dose: 18.75 mg/kg/injection, schedule: Q01DX001 (ip), vehicle: other 95 % of control | dose: 37.5 mg/kg/injection, schedule: Q01DX001 (ip), vehicle: other 100 % of control

COCc1ncc2cnccn12
inactive: dose: 25.0 mg/kg/injection, schedule: Q01DX009 (ip), vehicle: saline 90 % of control | [13] 103 % of control | [14] 98 % of control and 103 % of control and 91 % of control | dose: 200.0 mg/kg/injection, schedule: Q01DX009 (ip), vehicle: saline 93 % of control

O=C(Nc1ccc(Cl)cc1)c1cc(Cl)cc(Cl)c1Br
inactive: [1] 95 % of control | [2] 93 % of control | [3] 91 % of control

S=C(c1ccc2ccccc2n1)N1CCOCC1
inactive: [7] 100 % of control | [8] 91 % of control | [10] 105 % of control

Cc1cc(N(C)C)ccc1C=O
inactive: [4] 94 % of control | [7] 97 % of control | [6] 105 % of control | [8] 105 % of control | [9] 103 % of control | [10] 98 % of control

Nc1nc(N)c2ncn(C3CC(CO)C(O)C3O)c2n1 (stereo not drawn)
inactive: dose: 6.25 mg/kg/injection, schedule: Q01DX009 (ip), vehicle: saline with Tween-80 91 % of control | dose: 12.5 mg/kg/injection, schedule: Q01DX009 (ip), vehicle: saline with Tween-80 98 % of control | dose: 25.0 mg/kg/injection, schedule: Q01DX009 (ip), vehicle: saline with Tween-80 102 % of control

COc1ccc(OC)c(NC(=O)Oc2ccccc2C(N)=O)c1
inactive: [11] 89 % of control | [12] 95 % of control | [7] 94 % of control and 92 % of control

c1cc(N=NNc2cccc(C3=NCCN3)c2)cc(C2=NCCN2)c1
inactive: dose: 7.75 mg/kg/injection, schedule: Q01DX015 (ip), vehicle: water 100 % of control | dose: 15.5 mg/kg/injection, schedule: Q01DX015 (ip), vehicle: water 94 % of control | dose: 31.0 mg/kg/injection, schedule: Q01DX015 (ip), vehicle: water 100 % of control | dose: 62.0 mg/kg/injection, schedule: Q01DX015 (ip), vehicle: water 98 % of control

[Cl][Pd][Cl].[NH-]CCN1CC1
inactive: dose: 25.0 mg/kg/injection, schedule: Q04DX002 (ip), vehicle: saline + alcohol 113 % of control | dose: 50.0 mg/kg/injection, schedule: Q04DX002 (ip), vehicle: saline + alcohol 102 % of control | dose: 100.0 mg/kg/injection, schedule: Q04DX002 (ip), vehicle: saline + alcohol 117 % of control | [5] 116 % of control

Cc1ccc(S(=O)(=O)Nc2ccccc2O)cc1
inactive: dose: 100.0 mg/kg/injection, schedule: Q01DX001 (ip), vehicle: saline 102 % of control | dose: 200.0 mg/kg/injection, schedule: Q01DX001 (ip), vehicle: saline 98 % of control | dose: 400.0 mg/kg/injection, schedule: Q01DX001 (ip), vehicle: saline 98 % of control

CCC(CCC(C)C1CCC2C3CC=C4CC(OC5OC(CO)C(O)C(O)C5O)CCC4(C)C3CCC12C)C(C)C (stereo not drawn)
inactive: dose: 100.0 mg/kg/injection, schedule: Q01DX Z (ip), vehicle: Klucel (hydroxypropylcellulose) (HPC) 92 % of control | [7] 106 % of control | dose: 200.0 mg/kg/injection, schedule: Q01DX Z (ip), vehicle: Klucel (hydroxypropylcellulose) (HPC) 91 % of control | [8] 104 % of control | dose: 400.0 mg/kg/injection, schedule: Q01DX Z (ip), vehicle: Klucel (hydroxypropylcellulose) (HPC) 91 % of control | [10] 90 % of control

CC1CC1C(=O)Cl (stereo not drawn)
inactive: [13] 97 % of control | [14] 101 % of control
